Results: EP2547369B1, “A NA[…] MICELLE FORMED BY AN A[…]-COPOLYMER AND ENCAPSULATING A […]” (King Saud University, priority 2010, dated 2011)

Experiments:
[1] = cited from earlier work
[2] = test system: Jurkat human leukemia cell line; assay: MTT assay, cytotoxicity of free and micelle-encapsulated Gd(III) complex on Jurkat; type: cell-based; settings: 3 days; for cytotoxicity: 50 µM
Description: (§1) The present inventors also evaluated the cytotoxicity of Gd(III) complexes using the MTT assay, another method measuring cell viability, on the Jurkat and MCF-7 cell lines (Figure 9 and 11). […] In order to estimate the concentration of Gd (III) complexes able to reduce cell viability by 50% (IC50), the present inventors plotted a linear regression line for each used cell line (Figure 10). […] It appears thus that Jurkat cells are slightly more susceptible to Gd (III) complexes than MCF-7 cells.
To compare the cytotoxicity of free and micelle-encapsulated Gd(III) complexes and to verify if the time of dialysis influences polymeric micelle cytotoxicity, the present inventors performed again the MTT assay on Jurkat cells. The cells were treated with incremental concentrations of the free and micelle-encapsulated Gd(III) complexes.
Two different cell lines were used to assess Gd(III) cytotoxicity: Jurkat, and MCF-7. Jurkat cells were seeded on two 96-well culture plates (BD Falcon) (50 µl in each well with a concentration of 4x10^5 cells/mL). Different concentrations (5 µM, 10 µM, 15 µM and 20 µM) of Gd(III) complex solution, diluted in 50 µl of RPMI-1640, were used. Each test was repeated eight times. As a negative control, cells were treated with ethanol (96%) (the same amount of ethanol present in the cells treated with a highest concentration of Gd(III) complex). Incubation was carried out for 3 days. In this experiment the toxicity of Gd(III) complex was evaluated by the 3-(4, 5-dimethylthiazol-2-yl)-2, 5-diphenyl tetrazolium bromide (MTT) assay. At the end of each incubation time 10 µl of 5 mg/mL MTT solution (AppliChem) were added to each well followed by further incubation for 4h. Then, 100 µl of 0.04 N HCL in isopropanol (BDH Prolabo) were added to the wells and formazan crystals were allowed to solubilize for 1 hour at room temperature. The formazan concentration was quantified using a spectrophotometer (Tecan Infinite M200 monochromator-based multi-function microplate reader) by measuring the absorbance at 570 nm and 630 nm. The final optical density (OD) obtained from formazan formation was calculated with the following formula: OD=L(570nm)-L(630nm). The toxicity was assessed by calculating the % of cell survival in relation to the control untreated group. […]
To assess Gd(III) complex-loaded polymeric micelle cytoxicity and to compare it with the toxicity from free Gd(III) complex, Jurkat cells were seeded on a 96-well culture plate (50 µl in each well with a concentration of 4x10^5 cells/mL). […] The cytotoxicity of Gd(III) complex and Gd(III) complex-loaded polymeric micelles was evaluated by the MTT assay following the procedure mentioned on 8.2.

[3] = test system: Jurkat cell line; assay: Cell count with Trypan Blue, cytotoxicity of Gd(III) complex; type: cell-based, human; settings: 3 days
Method: The MCF-7, MDA-MB-468, HeLa, 293T; ARPE19; D407 and S17 adherent cell lines were maintained in DMEM medium (LONZA) supplemented with 10% fetal bovine serum (FBS) (PAA), glutamine (200 mM), penicillin (10000 units/mL) and streptomycin (10000 µg/mL) from LONZA. All cell culture incubations were performed at 37°C under humidified atmosphere of 5% CO2. The Jurkat and DND41 suspension cell lines were maintained in RPMI 1640 medium (LONZA) supplemented as above. Cells were thawed at 37°C and pipetted into 10 mL of prewarmed medium. The cells were centrifuged at 300 g for 5 minutes to remove dimethylsulfoxide (DMSO) (Merck). Then, the supernatant was discarded and the pellet resuspended in 2 mL of fresh medium. The cells were placed into T25 flasks (Nunc) and 8 mL of medium was added for a final volume of 10 mL. The medium was changed every 2 days. […] The hemocytometer Neubauer chamber (Hausser Scientific) was filled with the cell suspension and uncolored viable cells were counted on an inverted light microscope (Leica DM IL). The cells were counted in four 1 mm^2 squares. The equation to calculate the cell number per cubic millimeter is the following: Number of cells counted per square millimeter × dilution used × 10. […]

[4] = test system: MCF-7 breast cancer cell line; assay: MTT assay, cytotoxicity of Gd(III) complex on MCF-7; type: cell-based, human
Description: as §1
Two different cell lines were used to assess Gd(III) cytotoxicity: Jurkat, and MCF-7. Jurkat cells were seeded on two 96-well culture plates (BD Falcon) (50 µl in each well with a concentration of 4x10^5 cells/mL). […] Each test was repeated eight times. As a negative control, cells were treated with ethanol (96%) (the same amount of ethanol present in the cells treated with a highest concentration of Gd(III) complex). Incubation was carried out for 3 days. In this experiment the toxicity of Gd(III) complex was evaluated by the 3-(4, 5-dimethylthiazol-2-yl)-2, 5-diphenyl tetrazolium bromide (MTT) assay. At the end of each incubation time 10 µl of 5 mg/mL MTT solution (AppliChem) were added to each well followed by further incubation for 4h. Then, 100 µl of 0.04 N HCL in isopropanol (BDH Prolabo) were added to the wells and formazan crystals were allowed to solubilize for 1 hour at room temperature. The formazan concentration was quantified using a spectrophotometer (Tecan Infinite M200 monochromator-based multi-function microplate reader) by measuring the absorbance at 570 nm and 630 nm. The final optical density (OD) obtained from formazan formation was calculated with the following formula: OD=L(570nm)-L(630nm). The toxicity was assessed by calculating the % of cell survival in relation to the control untreated group. The procedure described above was repeated for the MCF-7 cell line, after being seeded at 5 × 10^3 cells per each well and allowed to attach for 24h.

| Compound | solubility in aqueous media [1] | toxicity (number of viable cells) ([2]; 10 µM) | cytotoxicity [2] | cytotoxicity ([2]; listed as free Gd(III) complexes) | IC50 ([2]; from linear regression line, read-out: IC50 (concentration able to reduce cell viability by 50%)) | toxicity by cell count ([3]; 10 µM) | toxicity by cell count ([3]; 50 µM) | toxicity (number of viable cells) ([4]; 10 µM, MTT, 3 days, MCF-7) | toxicity ([4]; 50 µM, 3 days, MCF-7 cells as printed) | IC50 ([4]; MCF-7, 3 days, MTT, from linear regression line, read-out: IC50 (concentration able to reduce cell viability by 50%)) |
| --- | --- | --- | --- | --- | --- | --- | --- | --- | --- | --- |
| Cc1ccc2ccc3cccc4ccc1c2c34 [1-methylpyrene] | ca. 10^-7 M | – | – | – | – | – | – | – | – | – |
| tetraaquodichloro(4,4'-ditBu-2,2'-bipyridine) gadolinium(III) chloride [Gd(III) complexes] | – | toxic | kill all cells | killed almost all cells | 10.2 µM | less toxic | very toxic | toxic | overall cell death | 12.8 µM |
